According to US20240180221A1, “METHODS AND COMPOSITIONS FOR IMPROVED TASTE QUALITY” (ALMENDRA PTE. LTD., priority 2021, published 2024):

Test system: human taste testers
Test: Tasting of amino acid solutions in citric acid buffer for bitterness, with and without taste modulator
Assay type: in vivo
Settings: for bitterness intensity: 7.5 mM solution in pH 3.2 CAB, 0-15 intensity scale; for Bitter Taste Threshold in CAB: pH 3.2 Citric Acid Buffer, serial dilutions from 30 mM to 1.88 mM tasted in ascending order

Compound	bitterness intensity	Bitter Taste Threshold in CAB	bitterness onset and linger (in pH 3.2 CAB)
N[C@@H](Cc1ccccc1)C(=O)O [L-Phe, L-Phenylalanine]	5	ca. 3 mM	
N[C@@H](Cc1c[nH]c2ccccc12)C(=O)O [L-Trp, L-Tryptophan]	5	ca. 3 mM	noticeably slow in onset and quite lingering
